Laboratory results taken from ChEMBL document CHEMBL1143454, “Arylphthalazines: identification of a new phthalazine chemotype as inhibitors of VEGFR kinase” (Bioorg Med Chem Lett, 2005).

The compounds below were run against Vascular endothelial growth factor receptor 2 (Homo sapiens, UniProt P35968) (assay: Inhibition of Vascular endothelial growth factor receptor 2 kinase phosphorylation of pGAT-biotin peptide).
Vascular endothelial growth factor receptor 2, sequence (P35968 whole entry): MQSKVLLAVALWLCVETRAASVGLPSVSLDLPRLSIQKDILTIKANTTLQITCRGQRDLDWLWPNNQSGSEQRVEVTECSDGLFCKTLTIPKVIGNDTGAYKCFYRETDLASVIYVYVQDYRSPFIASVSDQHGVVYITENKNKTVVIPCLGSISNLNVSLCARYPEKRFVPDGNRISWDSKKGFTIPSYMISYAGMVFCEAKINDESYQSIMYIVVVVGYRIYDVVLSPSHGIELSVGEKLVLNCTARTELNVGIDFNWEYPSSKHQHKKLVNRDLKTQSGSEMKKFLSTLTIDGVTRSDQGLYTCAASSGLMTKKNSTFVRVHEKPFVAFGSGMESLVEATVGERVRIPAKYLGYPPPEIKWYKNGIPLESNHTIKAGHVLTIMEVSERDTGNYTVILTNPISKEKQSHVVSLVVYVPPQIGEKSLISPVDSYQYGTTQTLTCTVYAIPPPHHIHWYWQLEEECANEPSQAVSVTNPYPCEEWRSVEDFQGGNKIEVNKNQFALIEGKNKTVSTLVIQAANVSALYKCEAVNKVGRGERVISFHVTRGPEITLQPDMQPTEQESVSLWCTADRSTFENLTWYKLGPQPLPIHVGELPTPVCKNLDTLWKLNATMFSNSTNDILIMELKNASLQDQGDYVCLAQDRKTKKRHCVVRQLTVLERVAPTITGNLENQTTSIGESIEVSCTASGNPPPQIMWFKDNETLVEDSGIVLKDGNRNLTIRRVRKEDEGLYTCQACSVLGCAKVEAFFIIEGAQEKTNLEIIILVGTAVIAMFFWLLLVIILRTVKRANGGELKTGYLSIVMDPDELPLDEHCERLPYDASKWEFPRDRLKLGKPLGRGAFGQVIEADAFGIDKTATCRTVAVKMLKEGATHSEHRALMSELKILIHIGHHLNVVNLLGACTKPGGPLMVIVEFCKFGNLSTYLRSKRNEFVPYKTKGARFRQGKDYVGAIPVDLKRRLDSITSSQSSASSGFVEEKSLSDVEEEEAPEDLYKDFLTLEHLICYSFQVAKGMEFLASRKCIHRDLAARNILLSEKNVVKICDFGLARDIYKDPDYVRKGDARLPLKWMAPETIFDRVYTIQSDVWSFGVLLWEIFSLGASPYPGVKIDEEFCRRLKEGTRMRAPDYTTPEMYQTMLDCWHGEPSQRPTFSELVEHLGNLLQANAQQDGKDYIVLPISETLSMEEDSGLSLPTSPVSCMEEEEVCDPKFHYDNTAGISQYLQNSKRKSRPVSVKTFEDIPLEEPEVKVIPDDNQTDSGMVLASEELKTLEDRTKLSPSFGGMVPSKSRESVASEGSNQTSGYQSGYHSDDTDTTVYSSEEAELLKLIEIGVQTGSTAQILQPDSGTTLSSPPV

| Structure (SMILES) | IC50 |
| --- | --- |
| Cc1ccc(-c2nnc(Nc3ccc(OC(F)(F)Cl)cc3)c3ccccc23)cc1S(=O)(=O)NC(C)C | > 10 µM |
| O=C(NCCO)c1ccc(-c2nnc(Nc3ccc(OC(F)(F)Cl)cc3)c3ccccc23)cc1 | 1.1 µM |
| CCOc1ccc(-c2nnc(Nc3ccc(C)cc3)c3ccccc23)cc1 | > 10 µM |

Further lines, results first:

| IC50 | Structure (SMILES) |
| --- | --- |
| > 10 µM | CC(C)(C)NC(=O)c1ccc(-c2nnc(Nc3ccc(OC(F)(F)Cl)cc3)c3ccccc23)cc1 |
| > 10 µM | NC(=O)c1ccc(-c2nnc(Nc3ccc(S(N)(=O)=O)cc3)c3ccccc23)cc1 |
| 2 µM | COc1ccc(Nc2nnc(-c3ccc(C(N)=O)cc3)c3ccccc23)cc1 |

Each compound was assayed against Vascular endothelial growth factor receptor 1 (Homo sapiens) (UniProt P17948) (assay: Percent inhibition of Vascular endothelial growth factor receptor 1 at 10 uM).
Vascular endothelial growth factor receptor 1 (Homo sapiens), sequence (P17948 whole entry): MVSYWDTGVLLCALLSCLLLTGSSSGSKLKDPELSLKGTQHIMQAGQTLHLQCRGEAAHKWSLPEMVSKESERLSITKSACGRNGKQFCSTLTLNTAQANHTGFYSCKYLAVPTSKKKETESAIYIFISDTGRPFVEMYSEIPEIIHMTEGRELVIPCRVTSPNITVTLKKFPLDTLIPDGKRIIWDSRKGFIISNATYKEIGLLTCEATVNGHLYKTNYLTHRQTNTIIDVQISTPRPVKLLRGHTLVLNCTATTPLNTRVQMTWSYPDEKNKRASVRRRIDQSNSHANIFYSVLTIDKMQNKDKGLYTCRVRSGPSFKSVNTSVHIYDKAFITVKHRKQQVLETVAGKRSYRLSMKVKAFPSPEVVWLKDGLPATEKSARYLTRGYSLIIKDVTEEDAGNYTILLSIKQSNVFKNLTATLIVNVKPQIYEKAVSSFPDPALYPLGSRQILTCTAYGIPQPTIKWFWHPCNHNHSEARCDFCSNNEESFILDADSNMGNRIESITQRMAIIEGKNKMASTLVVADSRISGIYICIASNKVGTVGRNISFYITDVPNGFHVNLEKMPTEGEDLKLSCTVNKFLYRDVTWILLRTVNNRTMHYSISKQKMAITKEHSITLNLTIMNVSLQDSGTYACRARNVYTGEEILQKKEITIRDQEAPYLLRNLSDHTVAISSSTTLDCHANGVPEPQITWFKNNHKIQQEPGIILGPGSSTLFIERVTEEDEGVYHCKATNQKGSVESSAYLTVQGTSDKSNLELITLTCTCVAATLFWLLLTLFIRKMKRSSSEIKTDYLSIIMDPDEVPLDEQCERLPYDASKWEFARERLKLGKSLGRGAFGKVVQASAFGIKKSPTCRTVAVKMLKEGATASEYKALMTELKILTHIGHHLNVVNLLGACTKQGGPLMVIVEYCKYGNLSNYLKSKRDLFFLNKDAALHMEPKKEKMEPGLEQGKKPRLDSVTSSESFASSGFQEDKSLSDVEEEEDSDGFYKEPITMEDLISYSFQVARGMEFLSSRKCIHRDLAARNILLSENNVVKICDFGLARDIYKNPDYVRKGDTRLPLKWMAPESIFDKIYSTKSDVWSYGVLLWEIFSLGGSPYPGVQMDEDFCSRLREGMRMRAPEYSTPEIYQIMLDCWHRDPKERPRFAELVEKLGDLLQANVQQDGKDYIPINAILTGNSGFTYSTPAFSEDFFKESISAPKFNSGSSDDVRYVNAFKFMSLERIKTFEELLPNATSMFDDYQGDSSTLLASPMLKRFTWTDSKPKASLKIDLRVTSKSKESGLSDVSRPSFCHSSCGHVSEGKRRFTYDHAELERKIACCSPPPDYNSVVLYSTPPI

| inhibition | Structure (SMILES) |
| --- | --- |
| 51% | NC(=O)c1ccc(-c2nnc(Nc3cccc(Br)c3)c3ccccc23)cc1 |
| 53% | NC(=O)c1ccc(-c2nnc(Nc3ccc(Br)cc3)c3ccccc23)cc1 |
| 73% | CC(C)(C)c1ccc(Nc2nnc(-c3ccc(C(N)=O)cc3)c3ccccc23)cc1 |
| 60% | CC(C)(C)c1cccc(Nc2nnc(-c3ccc(C(N)=O)cc3)c3ccccc23)c1 |
